Patent publication US20190054051A1, “DOPA Formulations for Treatments of Parkinson's Disease” (The Board of Trustees of the Leland Stanford Junior …, priority 2017, published 2019)

Tests used:
[1] = system: animal models of PD; conditions: previously reported; cited from earlier work
[2] = system: pERK, ChAT and H2R; experiment: Immunohistochemical co-localization of pERK, ChAT and H2R in striatum; format: in vivo, mice; conditions: lesioned striatum
Protocol: (§1) Immunohistochemical analysis was performed with commonly known procedures. Mice were transcardially perfused with ice-cold 4% paraformaldehyde in PBS 45 minutes after challenge with L-DOPA or DOPA-ranitidine formulations. The brain was dissected out, post-fixed in 4% PFA overnight at 4° C., and cryoprotected using 30% sucrose in PBS. Cryoprotected brains were stored at -80° C. For TH immunostaining 30 μm coronal sections were taken around both CPu and substantia nigra, to examine dopaminergic denervation at the level of striatum and neuronal cell body loss at the level of substantia nigra. For pERK, ChAT, FoxP and AFos B expression, only coronal sections at the level of striatum was used. Free-floating coronal sections were blocked in blocking buffer (PBS with 2% BSA, 0.3% TritonX-100) for 1 hr at room temperature with gentle rocking. Sections were then transferred to incubation solution (PBS with 1% BSA, 0.03% TritonX-100) and the respective primary antibody as shown in table 1 and incubated at 4° C. for 24-48 hrs with gentle shaking. The sections were mounted with fluorescein or DAPI containing mounting media and serial z stack images were taken using Zeiss laser scanning confocal microscope LSM 800 at Stanford Cell Sciences Imaging facility. […]

[3] = system: ChAT; experiment: ChAT immunoreactivity (fluorescence intensity) in cholinergic interneurons; design: species or system mice; conditions: mouse, in vivo
Protocol: as §1, with “−80°” for “-80°”

CN/C(=C\[N+](=O)[O-])NCCSCc1ccc(CN(C)C)o1 [Ranitidine, N-(2-[(5-[(dimethylamino)methyl]furan-2-yl)methylthio]ethyl)-N′-methyl-2-nitroethene-1,1-diamine]
L-DOPA induced dyskinesia (dyskinetic behavior following DOPA treatment) [1]: suppress LID

N[C@@H](Cc1ccc(O)c(O)c1)C(=O)O [L-DOPA, L-3,4-dihydroxyphenylalanine]
triple labeling of pERK, ChAT and H2R [2]: Occasional triple labeling | ChAT immunoreactivity (FI), lesioned side versus intact side [3]: slightly lower on the lesioned side than the intact side
